Reference: patent publication US11873291B2, “Quinoline cGAS antagonist compounds” (ImmuneSensor Therapeutics, Inc., priority 2020, dated 2024)
Where two headings read alike, the source gives them in different places.

Legend:
[1] = target: T1, recombinant human cGAS (aa147-522) (Homo sapiens, UniProt Q8N884); assay: In vitro inhibition assay of cGAS activity (ATP consumption, KinaseGlo Max); assay type: biochemical
T1 construct: recombinant human cGAS (aa147-522); His6-SUMO (cleaved yes); made in house; host or cells: E. coli BL21/pLys
T1 sequence (Q8N884 147-522): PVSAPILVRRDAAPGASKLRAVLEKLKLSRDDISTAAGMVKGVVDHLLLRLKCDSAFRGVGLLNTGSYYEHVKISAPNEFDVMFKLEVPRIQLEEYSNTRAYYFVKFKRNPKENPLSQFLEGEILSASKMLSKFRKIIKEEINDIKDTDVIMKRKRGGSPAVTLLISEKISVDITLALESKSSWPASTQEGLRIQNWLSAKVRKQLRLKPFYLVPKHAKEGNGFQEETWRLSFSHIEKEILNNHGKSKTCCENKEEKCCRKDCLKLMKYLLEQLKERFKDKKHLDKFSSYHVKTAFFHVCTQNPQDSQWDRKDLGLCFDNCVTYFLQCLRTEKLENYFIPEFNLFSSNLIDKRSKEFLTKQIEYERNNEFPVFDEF
How it was run: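 IC50 came from plotting % ATP consumption against log compound concentration, with leftover ATP detected by KinaseGlo Max chemiluminescence. Reactions ran 20 min at 37 °C with 1.5 μg/mL human cGAS (aa147-522), 6.6 μM ATP, 0.1 mM GTP and 0.01 mg/mL DNA at pH 7.5.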

[2] = test system: cGAS activity in Reporter THP1 cell line; assay: Cellular assay to measure cGAS activity: ISRE-Gaussia luciferase reporter THP1 cells transfected with ISD; assay type: cell-based; settings: Homo sapiens
How it was run: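 THP1 ISRE-Gaussia luciferase reporter cells (0.3×10^6/well) pre-incubated 5 min with compound serial dilutions, then lipofectamine-transfected with 2 μg/mL ISD (45 bp DNA) or mock. Secreted luciferase read 16 h later with 1 μM coelenterazine at pH 6.5; IC50 from fold increase over mock. Specificity counter-screen used 2 μg/mL poly(I:C) or Sendai virus 50 Unit/mL.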

[3] = Table 3, read-out: cGAS Inhibition Results IC50
[4] = THP-1, untitled table after Table 4 (continuation)
[5] = THP-1, Table 4, Gaussia luciferase
[6] = Table 2, read-out: cGAS Inhibition Results IC50

| SMILES | IC50 [1, 3] [nM] | IC50 [2, 4] [nM] | IC50 [2, 5] [nM] | IC50 [1, 6] [nM] |
| --- | --- | --- | --- | --- |
| O=C(O)C[C@@H]1[C@H](O)CCN1c1cc(-n2ccnc2)c2ccc(Cl)c(Cl)c2n1 [I-781, 2-((2R,3R)-1-(7,8-dichloro-4-(1H-imidazol-1-yl)quinolin-2-yl)-3-hydroxypyrrolidin-2-yl)acetic acid] | < 2000 | > 10000 |  |  |
| CC(C)(C)OC(=O)[C@@H]1[C@@H](O)CCN1c1cc(-n2ccnc2)c2ccc(Cl)c(Cl)c2n1 [I-645, tert-butyl (2S,3S)-1-(7,8-dichloro-4-(1H-imidazol-1-yl)quinolin-2-yl)-3-hydroxypyrrolidine-2-carboxylate] | 2000 to 30000 |  | < 2000 |  |
| C=C1C[C@@H](COCCC(=O)O)N(c2cc(-n3ccnc3)c3ccc(Cl)c(Cl)c3n2)C1 [I-801] | < 2000 | < 2000 |  |  |
| O=C(O)CCOC[C@@H]1Cc2ccccc2N1c1cc(-n2ccnc2)c2ccc(Cl)c(Cl)c2n1 [I-806] | < 2000 | 2000 to 10000 |  |  |
| O=C(O)CCC(=O)NNc1cc(-n2ccnc2)c2ccc(Cl)c(Cl)c2n1 [I-759] | < 2000 | > 10000 |  |  |
| O=C(O)CCCCCNc1cc(-c2cn[nH]c2)c2ccc(Cl)c(Cl)c2n1 [I-830] | < 2000 | < 2000 |  |  |
| O=C(O)CCOCC1CN(c2cc(-n3ccnc3)c3ccc(Cl)c(Cl)c3n2)CCCO1 (centres unmarked) [I-867] | < 2000 | < 2000 |  |  |
| Clc1ccc2c(-n3ccnc3)cc(N3CCCC3c3ncc[nH]3)nc2c1Cl (centres unmarked) [I-467] | 2000 to 30000 |  | 2000 to 10000 |  |
| O=C(O)COC[C@@H]1CCCN(c2cc(-n3ccnc3)c3ccc(Cl)c(Cl)c3n2)C1 [I-744] | < 2000 |  | < 2000 |  |
| NC(=O)CNC(=O)C[C@@H]1CCCN1c1cc(-n2ccnc2)c2ccc(Cl)c(Cl)c2n1 [I-539] | < 2000 |  | 2000 to 10000 |  |
| COC(=O)CCOC[C@@H]1CCCN1c1cc(-c2cn[nH]c2)c2ccc(Cl)c(Cl)c2n1 [I-671] | < 2000 |  | < 2000 |  |
| C[C@H]1[C@@H](C(=O)O)N(c2cc(-n3ccnc3)c3ccc(Cl)c(Cl)c3n2)C[C@@H]1O [I-780] | 2000 to 30000 | > 10000 |  |  |
| O=C(O)COC[C@@H]1CN(c2cc(-n3ccnc3)c3ccc(Cl)c(Cl)c3n2)CCO1 [I-742] | < 2000 |  | > 10000 |  |
| CCOC(=O)[C@@H]1[C@@H](O)[C@H](C)CN1c1cc(-n2ccnc2)c2ccc(Cl)c(Cl)c2n1 [I-779] | 2000 to 30000 | > 10000 |  |  |
| O=C(O)C1CCCCC1OC[C@@H]1CCCN1c1cc(-n2ccnc2)c2ccc(Cl)c(Cl)c2n1 (some centres unmarked) [I-815] | < 2000 | 2000 to 10000 |  |  |
| O=C(O)CCO[C@@H]([C@@H]1CCCN1c1cc(-n2ccnc2)c2ccc(Cl)c(Cl)c2n1)C(F)(F)F [I-722] | < 2000 |  | 2000 to 10000 |  |
| O=C(O)C1COCCN1c1cc(-n2ccnc2)c2ccc(Cl)c(Cl)c2n1 (centres unmarked) [I-92] |  |  | > 10000 | < 2000 |
| O=C(O)CCc1cccc(Nc2cc(-n3ccnc3)c3ccc(Cl)c(Cl)c3n2)c1 [I-883] | < 2000 | 2000 to 10000 |  |  |
| O=C(O)CCOC[C@@H]1C[C@H](F)CN1c1cc(-n2ccnc2)c2ccc(Cl)c(Cl)c2n1 [I-705] | < 2000 |  | < 2000 |  |
| COC(=O)[C@@H]1C[C@@H](F)CN1c1cc(-n2ccnc2)c2ccc(Cl)c(Cl)c2n1 [I-592] | 2000 to 30000 |  | 2000 to 10000 |  |
| O=C(O)CCOCC1CC(O)CN(c2cc(-n3ccnc3)c3ccc(Cl)c(Cl)c3n2)C1 (centres unmarked) [I-748] | < 2000 |  | > 10000 |  |
| CC(CC(=O)O)OC[C@@H]1CCCN1c1cc(-n2ccnc2)c2ccc(Cl)c(Cl)c2n1 (some centres unmarked) [I-717] | < 2000 |  | < 2000 |  |

| SMILES | IC50 [1, 3] [nM] | IC50 [2, 4] [nM] | IC50 [2, 5] [nM] | IC50 [1, 6] [nM] |
| --- | --- | --- | --- | --- |
| O=C(O)/C=C/C[C@@H]1CCCN1c1cc(-n2ccnc2)c2ccc(Cl)c(Cl)c2n1 [I-685] | < 2000 |  | < 2000 |  |
| C[C@H]1CN(c2cc(-n3ccnc3)c3ccc(Cl)c(Cl)c3n2)C[C@@H]1COCCC(=O)O [I-814] | < 2000 | < 2000 |  |  |
| COC(=O)[C@@H]1CCCN1c1cc(-n2ccnc2)c2ccc(Cl)c(Cl)c2n1 [I-593] | 2000 to 30000 |  | 2000 to 10000 |  |
| O=C(O)CCOC[C@@H]1CCCN1c1cc(-n2ccnc2)c2cc(Cl)c(Cl)c(Cl)c2n1 [I-876] | < 2000 | < 2000 |  |  |
| C[C@H]1C[C@@H](C(=O)O)N(c2cc(-n3ccnc3)c3ccc(Cl)c(Cl)c3n2)C1 [I-477] | < 2000 |  | 2000 to 10000 |  |
| O=C(O)CCOCC1CC(F)CN(c2cc(-n3ccnc3)c3ccc(Cl)c(Cl)c3n2)C1 (centres unmarked) [I-749] | < 2000 |  | < 2000 |  |
| O=C(O)COC[C@H](O)[C@@H]1CCCN1c1cc(-n2ccnc2)c2ccc(Cl)c(Cl)c2n1 [I-726, 2-((R)-2-((S)-1-(7,8-dichloro-4-(1H-imidazol-1-yl)quinolin-2-yl)pyrrolidin-2-yl)-2-hydroxyethoxy)acetic acid] | < 2000 |  | > 10000 |  |
| O=C(O)CCOC[C@@H]1C[C@@H](OCc2ccccc2)CN1c1cc(-n2ccnc2)c2ccc(Cl)c(Cl)c2n1 [I-712] | < 2000 |  | < 2000 |  |
| C[C@@H]1CN(c2cc(-n3ccnc3)c3ccc(Cl)c(Cl)c3n2)[C@H](C(=O)O)[C@H]1O [I-778] | 2000 to 30000 | > 10000 |  |  |
| CC(C)OC(=O)[C@@H]1[C@@H](O)CCN1c1cc(-n2ccnc2)c2ccc(Cl)c(Cl)c2n1 [I-600] | 2000 to 30000 |  | < 2000 |  |
| N[C@H]1CCN(c2cc(-n3ccnc3)c3ccc(Cl)c(Cl)c3n2)C1 [I-765, (S)-1-(7,8-dichloro-4-(1H-imidazol-1-yl)quinolin-2-yl)pyrrolidin-3-amine] | 2000 to 30000 | 2000 to 10000 |  |  |
| O=C(O)CCCCCNc1cc(-c2cn[nH]c2)c2cc(Cl)cc(Cl)c2n1 [I-854] | < 2000 | > 10000 |  |  |
| COC(=O)CCOC[C@@H]1CCCN1c1cc(-n2ccnc2)c2ccc(Cl)c(Cl)c2n1 [I-665, methyl (S)-3-((1-(7,8-dichloro-4-(1H-imidazol-1-yl)quinolin-2-yl)pyrrolidin-2-yl)methoxy)propanoate] | < 2000 |  | < 2000 |  |
| O=C(O)CCOCC1(CNc2cc(-n3ccnc3)c3ccc(Cl)c(Cl)c3n2)CC1 [I-829] | < 2000 | 2000 to 10000 |  |  |
| O=C(O)COCCC[C@@H]1CCCN1c1cc(-n2ccnc2)c2ccc(Cl)c(Cl)c2n1 [I-820] | < 2000 | < 2000 |  |  |
| NS(=O)(=O)CC1CCN(c2cc(-n3ccnc3)c3ccc(Cl)c(Cl)c3n2)C1 (centres unmarked) [I-149] |  |  | > 10000 | < 2000 |
| O=C(O)c1ccccc1OCCNc1cc(-n2ccnc2)c2ccc(Cl)c(Cl)c2n1 [I-886] | < 2000 | < 2000 |  |  |
| O=C1C[C@@H]2[C@@H](CCN2c2cc(-n3ccnc3)c3ccc(Cl)c(Cl)c3n2)O1 [I-774, (3aR,6aR)-4-(7,8-dichloro-4-(1H-imidazol-1-yl)quinolin-2-yl)hexahydro-2H-furo[3,2-b]pyrrol-2-one] | < 2000 | 2000 to 10000 |  |  |
| O=C(O)C[C@@H]1[C@@H](O)CCN1c1cc(-n2ccnc2)c2ccc(Cl)c(Cl)c2n1 [I-785, 2-((2R,3S)-1-(7,8-dichloro-4-(1H-imidazol-1-yl)quinolin-2-yl)-3-hydroxypyrrolidin-2-yl)acetic acid] | < 2000 | > 10000 |  |  |
| O=C(O)CCOC[C@@H]1CCCN1c1cc(-c2cn[nH]c2)c2c(Cl)cc(Cl)cc2n1 [I-855] | 2000 to 30000 | > 10000 |  |  |
| O=C(O)CCOC[C@@H]1CCCN1c1cc(-c2cn[nH]c2)c2cc(Cl)cc(Cl)c2n1 [I-853] | < 2000 | < 2000 |  |  |
